Key:
Format in all cases: biochemical
Pim-1 = Pim-1 (Homo sapiens (Human), UniProt P11309); experiment: Pim-1 kinase assay; settings: 1 mM ATP; read-out: PIM1 IC50
Summary of the method: (§1)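 Biotin-BAD peptide (0.05 μM) phosphorylated with 1 mM ATP by 2.5 pM Pim-1 or 1.25 pM Pim-3 in Tris pH 7.5/MgCl2/DTT buffer, 1 h at 25° C. EDTA stop; phospho-BAD (Ser112) antibody with streptavidin donor and Protein-A acceptor beads, 1 h dark at room temperature before AlphaScreen-type bead read.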

Pim-2 = Pim-2 (Homo sapiens (Human), UniProt Q9P1W9); experiment: Pim-2 kinase assay; settings: 1 mM ATP; read-out: PIM2 IC50
Summary of the method: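 TR-FRET assay with 1 nM enzyme, 0.05 μM fluorescein-CREBtide and 1 mM ATP in Tris pH 7.5 buffer with MgCl2, DTT, BSA and Tween-20, run 2 h at 25° C. Stopped with EDTA and Tb-labelled anti-CREB pSer133 antibody, then read after 30 min at room temperature.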

Pim-3 = Pim-3 (Homo sapiens (Human), UniProt Q86V86); experiment: Pim-3 kinase assay; settings: 1 mM ATP; read-out: PIM3 IC50
Summary of the method: as §1

Pim-2, sequence (Q9P1W9 whole entry): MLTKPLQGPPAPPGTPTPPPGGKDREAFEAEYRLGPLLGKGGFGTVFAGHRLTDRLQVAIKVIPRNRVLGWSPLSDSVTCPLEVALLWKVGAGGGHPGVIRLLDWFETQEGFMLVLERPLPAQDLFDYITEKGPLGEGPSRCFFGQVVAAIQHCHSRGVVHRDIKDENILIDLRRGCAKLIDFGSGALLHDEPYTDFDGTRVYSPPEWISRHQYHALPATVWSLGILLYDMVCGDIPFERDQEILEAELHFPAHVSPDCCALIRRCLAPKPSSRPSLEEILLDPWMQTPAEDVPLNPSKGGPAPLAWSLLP
Pim-1, sequence (P11309 whole entry): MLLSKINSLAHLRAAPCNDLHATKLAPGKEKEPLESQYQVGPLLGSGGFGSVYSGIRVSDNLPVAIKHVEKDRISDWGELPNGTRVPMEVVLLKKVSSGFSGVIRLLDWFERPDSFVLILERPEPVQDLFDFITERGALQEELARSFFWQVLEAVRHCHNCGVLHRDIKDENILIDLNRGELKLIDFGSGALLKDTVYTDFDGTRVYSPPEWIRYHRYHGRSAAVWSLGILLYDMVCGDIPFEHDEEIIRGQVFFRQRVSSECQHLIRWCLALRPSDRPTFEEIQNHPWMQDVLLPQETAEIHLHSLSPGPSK

SMILES | IC50 (Pim-1) | IC50 (Pim-2) | IC50 (Pim-3)
CC1CCCCN1c1cc2c(F)ccc(C(=O)Nc3cnccc3[C@@H]3C[C@H](C)C[C@H](N)C3)c2nn1 (stereo partly drawn) [Example 93, N-{4-[(1R,3S,5S)-3-Amino-5-methylcyclohexyl]pyridin-3-yl}-5-fluoro-3-(2-methylpiperidin-1-yl)cinnoline-8-carboxamide] | ≤ 10 nM | ≤ 100 nM | ≤ 10 nM
C[C@@H]1C[C@H](N)C[C@H](c2ccncc2NC(=O)c2ccc(F)c3cc(N4CCOC[C@H]4C)nnc23)C1 [Example 94, N-{4-[(1R,3S,5S)-3-Amino-5-methylcyclohexyl]pyridin-3-yl}-5-fluoro-3-[(3R)-3-methylmorpholin-4-yl]cinnoline-8-carboxamide] | ≤ 10 nM | ≤ 100 nM | ≤ 10 nM
C[C@@H]1C[C@H](N)C[C@H](c2ccncc2NC(=O)c2ccc(F)c3cc(N4CCC[C@H]4C)nnc23)C1 [Example 95, N-{4-[(1R,3S,5S)-3-Amino-5-methylcyclohexyl]pyridin-3-yl}-5-fluoro-3-[(2R)-2-methylpyrrolidin-1-yl]cinnoline-8-carboxamide] | ≤ 10 nM | ≤ 100 nM | ≤ 10 nM
C[C@@H]1C[C@H](N)C[C@H](c2ccncc2NC(=O)c2ccc(F)c3cc(N4CC5CCC4C5)cnc23)C1 (stereo partly drawn) [Example 96, N-(4-((1R,3S,5S)-3-Amino-5-methylcyclohexyl)pyridin-3-yl)-3-(2-azabicyclo[2.2.1]heptan-2-yl)-5-fluoroquinoline-8-carboxamide] | ≤ 10 nM | ≤ 100 nM | ≤ 10 nM
C[C@@H]1C[C@H](N)C[C@H](c2ccncc2NC(=O)c2ccc(F)c3cc(N(C)c4ccccc4F)cnc23)C1 [Example 97, N-(4-((1R,3S,5S)-3-Amino-5-methylcyclohexyl)pyridin-3-yl)-5-fluoro-3-((2-fluorophenyl)(methyl)amino)quinoline-8-carboxamide] | ≤ 10 nM | ≤ 100 nM | ≤ 10 nM
C[C@@H]1C[C@H](N)C[C@H](c2ccncc2NC(=O)c2ccc(F)c3cc(N4C5CCC4CC(O)C5)cnc23)C1 (stereo partly drawn) [Example 98, N-(4-((1R,3S,5S)-3-Amino-5-methylcyclohexyl)pyridin-3-yl)-5-fluoro-3-(3-hydroxy-8-azabicyclo[3.2.1]octan-8-yl)quinoline-8-carboxamide] | ≤ 10 nM | ≤ 100 nM | ≤ 10 nM
C[C@@H]1C[C@H](N)C[C@H](c2ccncc2NC(=O)c2ccc(F)c3cc(N4CC(=O)N(C)C[C@H]4C)cnc23)C1 [Example 99, N-(4-((1R,3S,5S)-3-Amino-5-methylcyclohexyl)pyridin-3-yl)-3-((R)-2,4-dimethyl-5-oxopiperazin-1-yl)-5-fluoroquinoline-8-carboxamide] | ≤ 10 nM | ≤ 100 nM | ≤ 10 nM
C[C@@H]1C[C@H](N)C[C@H](c2ccncc2NC(=O)c2ccc(F)c3cc(N4CC(=O)N5CCCC[C@@H]5C4)cnc23)C1 [Example 100, N-(4-((1R,3S,5S)-3-Amino-5-methylcyclohexyl)pyridin-3-yl)-5-fluoro-3-((R)-4-oxodihydro-1H-pyrido[1,2-a]pyrazin-2(6H,7H,8H,9H,9aH)-yl)quinoline-8-carboxamide] | ≤ 10 nM | ≤ 100 nM | ≤ 10 nM
COC1CCCN(c2cnc3c(C(=O)Nc4cnccc4[C@@H]4C[C@H](C)C[C@H](N)C4)ccc(F)c3c2)CC1 (stereo partly drawn) [Example 101, N-(4-((1R,3S,5S)-3-Amino-5-methylcyclohexyl)pyridin-3-yl)-5-fluoro-3-(4-methoxyazepan-1-yl)quinoline-8-carboxamide] | ≤ 10 nM | ≤ 100 nM | ≤ 10 nM
C[C@@H]1C[C@H](N)C[C@H](c2ccncc2NC(=O)c2ccc(F)c3cc(N4CCCOCC4)cnc23)C1 [Example 102, N-(4-((1R,3S,5S)-3-Amino-5-methylcyclohexyl)pyridin-3-yl)-5-fluoro-3-(1,4-oxazepan-4-yl)quinoline-8-carboxamide] | ≤ 10 nM | ≤ 100 nM | ≤ 10 nM
C[C@@H]1C[C@H](N)C[C@H](c2ccncc2NC(=O)c2ccc(F)c3cc(N4CC5(CC(O)C5)C4)cnc23)C1 [Example 103, N-(4-((1R,3S,5S)-3-Amino-5-methylcyclohexyl)pyridin-3-yl)-5-fluoro-3-(6-hydroxy-2-azaspiro[3.3]heptan-2-yl)quinoline-8-carboxamide] | ≤ 10 nM | ≤ 100 nM | ≤ 10 nM
C[C@@H]1C[C@H](N)C[C@H](c2ccncc2NC(=O)c2ccc(F)c3cc(N4CCCC(O)CC4)cnc23)C1 (stereo partly drawn) [Example 104, N-(4-((1R,3S,5S)-3-Amino-5-methylcyclohexyl)pyridin-3-yl)-5-fluoro-3-(4-hydroxyazepan-1-yl)quinoline-8-carboxamide] | ≤ 10 nM | ≤ 100 nM | ≤ 10 nM
C[C@@H]1C[C@H](N)C[C@H](c2ccncc2NC(=O)c2ccc(F)c3cc(N4CCC[C@@H](C)C4)cnc23)C1 [Example 105, N-(4-((1R,3S,5S)-3-Amino-5-methylcyclohexyl)pyridin-3-yl)-5-fluoro-3-((R)-3-methylpiperidin-1-yl)quinoline-8-carboxamide] | ≤ 10 nM | ≤ 100 nM | ≤ 10 nM
C[C@@H]1C[C@H](N)C[C@H](c2ccncc2NC(=O)c2ccc(F)c3cc(N4C5CCCC4COC5)cnc23)C1 [Example 106, N-(4-((1R,3S,5S)-3-Amino-5-methylcyclohexyl)pyridin-3-yl)-3-(3-oxa-9-azabicyclo[3.3.1]nonan-9-yl)-5-fluoroquinoline-8-carboxamide] | ≤ 10 nM | ≤ 100 nM | ≤ 10 nM
C[C@@H]1C[C@H](N)C[C@H](c2ccncc2NC(=O)c2ccc(F)c3cc(N4CC5(CCC5)C4)cnc23)C1 [Example 107, N-(4-((1R,3S,5S)-3-Amino-5-methylcyclohexyl)pyridin-3-yl)-5-fluoro-3-(2-azaspiro[3.3]heptan-2-yl)quinoline-8-carboxamide] | ≤ 10 nM | ≤ 100 nM | ≤ 10 nM
C[C@@H]1C[C@H](N)C[C@H](c2ccncc2NC(=O)c2ccc(F)c3cc(N4CC[C@H](O)[C@@H](F)C4)cnc23)C1 [Example 108, N-(4-((1R,3S,5S)-3-Amino-5-methylcyclohexyl)pyridin-3-yl)-5-fluoro-3-((3S,4S)-3-fluoro-4-hydroxypiperidin-1-yl)quinoline-8-carboxamide] | ≤ 10 nM | ≤ 100 nM | ≤ 10 nM
C[C@@H]1C[C@H](N)C[C@H](c2ccncc2NC(=O)c2ccc(F)c3cc(N4CCCCO4)cnc23)C1 [Example 109, N-(4-((1R,3S,5S)-3-amino-5-methylcyclohexyl)pyridin-3-yl)-5-fluoro-3-(1,2-oxazinan-2-yl)quinoline-8-carboxamide] | ≤ 10 nM | ≤ 100 nM | ≤ 10 nM
C[C@@H]1C[C@H](N)C[C@H](c2ccncc2NC(=O)c2ccc(F)c3cc(N4CC5COCC5C4)cnc23)C1 (stereo partly drawn) [Example 110, N-(4-((1R,3S,5S)-3-Amino-5-methylcyclohexyl)pyridin-3-yl)-3-(dihydro-1H-furo[3,4-c]pyrrol-5(3H,6H,6aH)-yl)-5-fluoroquinoline-8-carboxamide] | ≤ 10 nM | ≤ 100 nM | ≤ 10 nM
